Read-outs that look alike come from different tables or passages of the source.
Assay: Clinical food-effect study: pharmacokinetics of a 100 mg tasimelteon capsule with or without a high-fat/high-calorie meal
Assay type: in vivo, human
Settings: for Cmax / Tmax: human, in vivo, po
Procedure: A clinical study was undertaken to investigate the effects of food on administration of tasimelteon. Specifically, the primary objective of the study was to investigate the influence of food (high-calorie/high-fat) on the pharmacokinetics of 100 mg of tasimelteon in healthy subjects. This was a single-center, open-label, crossover design which lasted up to 5 weeks. 26 Healthy male and female subjects (18-50 years old) were enrolled in the study. There was a 2-period, randomized, 2-sequence crossover design where each subject received 100 mg tasimelteon either with or without food. Subjects were randomly assigned to receive a 100 mg tasimelteon capsule under fasted conditions or a 100 mg tasimelteon capsule under fed conditions (i.e., 30 minutes after beginning to ingest a high-fat meal). There was a 7-day washout between treatment groups. FIG. 1 depicts an example of the overall study design. In FIG. 1, tasimelteon is referred to as VEC-162.
For purposes of the study depicted in FIG. 1, administration under fasted conditions was administration with 240 mL of water at approximately 6:00 AM, after at least a 10-hour fast. Subjects were not allowed to eat any food for at least 4 hours postdose. Subjects were allowed to drink water as desired except 1 hour before and 2 hours after drug administration.
Administration under fed conditions was administration with 240 mL of water at approximately 6:00 AM, after a high-fat/high=calorie breakfast, which included one cup of milk. Subjects began the recommended meal 30 minutes prior to drug administration. Subjects finished eating the meal in 30 minutes or less and the drug was administered approximately 30 minutes after the start of the meal. Subjects were not allowed to eat any food for at least 4 hours postdose. Subjects were allowed to drink water as desired except 1 hour before and 2 hours after drug administration.
25 Subjects completed both periods of the study.

[1] = fed vs fasted, 100 mg oral, 90% CI within 80% to 125%
[2] = with a high-fat/high calorie meal vs fasted

CCC(=O)NC[C@@H]1C[C@H]1c1cccc2c1CCO2 [tasimelteon]
Cmax lower than when given in a fasted state (administered with a high-fat meal, illustrative prescribing information language): 44% | Cmax (both sexes, 100 mg, healthy subjects, 100 mg oral capsule, fasted conditions): 786 ng/mL | Cmax (both sexes, 100 mg, healthy subjects, 100 mg oral capsule, fed conditions (high-fat/high-calorie meal)): 445 ng/mL | Tmax (both sexes, 100 mg, healthy subjects, 100 mg oral capsule, fed conditions (high-fat/high-calorie meal), read-out: median Tmax): 2.5 h | AUC(0-t) geometric mean ratio [1]: 108.57% | AUC(Inf) geometric mean ratio [1]: 106.54% | Cmax geometric mean ratio (fed vs fasted, 100 mg oral, 90% confidence interval 49.72% to 62.67%): 55.82% | Tmax (after fasted oral administration, illustrative prescribing information language, read-out: peak concentration (Tmax)): 0.5 to 3 h | extent of absorption [2]: no significant change | rate of absorption [2]: significant decrease
